According to PubChem BioAssay (NCI):
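Values below derive from 48-hour exposures of cells grown in 96-well plates, with endpoints linearly interpolated between the two concentrations bracketing the appropriate inhibition level. TGI: total growth inhibition.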

Tests used:
Test in all cases: NCI tumour cell line growth inhibition, 48 h
[1] = test system: SW-620 colon
[2] = test system: OVCAR-5 ovarian
[3] = test system: KM12 colon
[4] = test system: UO-31 renal
[5] = test system: NCI-H522 lung
[6] = test system: OVCAR-4 ovarian
[7] = test system: SNB-19 CNS
[8] = test system: NCI-H23 lung
[9] = test system: A498 renal
[10] = test system: SF-268 CNS
[11] = test system: ACHN renal
[12] = test system: MALME-3M melanoma
[13] = test system: PC-3 prostate
[14] = test system: MDA-MB-435
[15] = test system: K-562 leukemia
[16] = test system: IGROV1 ovarian
[17] = test system: SK-MEL-5 melanoma
[18] = test system: UACC-62 melanoma
[19] = test system: CCRF-CEM leukemia
[20] = test system: BT-549 breast
[21] = test system: M14 melanoma
[22] = test system: HL-60(TB) leukemia
[23] = test system: OVCAR-8 ovarian
[24] = test system: MDA-N
[25] = test system: SK-OV-3 ovarian
[26] = test system: NCI/ADR-RES ovarian
[27] = test system: SNB-75 CNS
[28] = test system: SR leukemia
[29] = test system: HOP-62 NSCLC
[30] = test system: SN12C renal
[31] = test system: DU-145 prostate
[32] = test system: TK-10 renal
[33] = test system: SF-295 CNS
[34] = test system: RPMI-8226 leukemia
[35] = test system: SK-MEL-2 melanoma
[36] = test system: HOP-92 NSCLC
[37] = test system: OVCAR-3 ovarian
[38] = test system: HCT-15 colon
[39] = test system: HS 578T breast
[40] = test system: LOX IMVI melanoma
[41] = test system: MCF7 breast
[42] = test system: MOLT-4 leukemia
[43] = test system: SK-MEL-28 melanoma
[44] = test system: HT29 colon
[45] = test system: A549 NSCLC
[46] = test system: NCI-H460 lung
[47] = test system: CAKI-1 renal
[48] = test system: MDA-MB-231 breast
[49] = test system: HCC-2998 colon
[50] = test system: U251 CNS
[51] = test system: HCT-116 colon
[52] = test system: 786-0 renal
[53] = test system: T-47D breast
[54] = test system: UACC-257 melanoma
[55] = test system: RXF 393 renal
[56] = test system: EKVX NSCLC
[57] = test system: COLO 205 colon
[58] = test system: NCI-H226 lung

CN(C)c1ccc(/C=C(\NC(=O)c2ccccc2)C2NC(Cc3c[nH]c4ccccc34)C(=O)O2)cc1 (stereo not drawn)
TGI [1]: > 100 µM | TGI [2]: > 100 µM | TGI [3]: > 100 µM | TGI [4]: > 100 µM | TGI [5]: 24.4 µM | TGI [6]: > 100 µM | TGI [7]: > 100 µM | TGI [8]: > 100 µM | TGI [9]: > 100 µM | TGI [10]: > 100 µM | TGI [11]: > 100 µM | TGI [12]: 79.6 µM | TGI [13]: > 100 µM | TGI [14]: > 100 µM | TGI [15]: > 100 µM | TGI [16]: > 100 µM | TGI [17]: > 100 µM | TGI [18]: > 100 µM | TGI [19]: > 100 µM | TGI [20]: > 45.2 µM | TGI [21]: > 100 µM | TGI [22]: 39.9 µM | TGI [23]: > 100 µM | TGI [24]: > 100 µM | TGI [25]: > 100 µM | TGI [26]: > 100 µM | TGI [27]: > 100 µM | TGI [28]: > 100 µM | TGI [29]: > 100 µM | TGI [30]: > 100 µM | TGI [31]: > 100 µM | TGI [32]: > 38.7 µM | TGI [33]: > 100 µM | TGI [34]: > 49 µM | TGI [35]: > 100 µM | TGI [36]: > 69.3 µM | TGI [37]: > 100 µM | TGI [38]: > 93.5 µM | TGI [39]: > 54.9 µM | TGI [40]: > 54.3 µM | TGI [41]: > 100 µM | TGI [42]: > 100 µM | TGI [43]: > 100 µM | TGI [44]: > 100 µM | TGI [45]: > 100 µM | TGI [46]: > 74.5 µM | TGI [47]: > 100 µM | TGI [48]: > 100 µM | TGI [49]: > 100 µM | TGI [50]: > 100 µM | TGI [51]: > 100 µM | TGI [52]: > 100 µM | TGI [53]: > 100 µM | TGI [54]: > 100 µM | TGI [55]: > 100 µM | TGI [56]: > 100 µM | TGI [57]: > 39.3 µM | TGI [58]: > 100 µM
